Data taken from patent US20230043672A1, “AROMATIC AMIDO DERIVATIVES AS LPA RECEPTOR 2 INHIBITORS” (CHIESI FARMACEUTICI S.P.A., priority 2019, published 2023).
pIC50: −log10 of the molar value.

Molecular target: T1, human recombinant LPA2 expressed in CHO cells (Homo sapiens, UniProt Q9HBW0)
T1 construct: expressed in transfected cells; host or cells: CHO cells (CHO-hLPA2 cell line)
Test: FLIPR calcium mobilization assay, LPA2 antagonism in CHO-hLPA2 cells
Assay type: cell-based
Details: LPA EC80 stimulation, potency class, read-out: LPA2 IC50
Procedure: The effectiveness of compounds of the present invention as LPA2 antagonist can be determined at the human recombinant LPA2 expressed in CHO cells, using a FLIPR assay in 384 well format.
CHO-hLPA2 cell lines are cultured in a humidified incubator at 5% CO2 in DMEM/F-12 (1:1) MIXTURE with 2 mM Glutamax, supplemented with 10% of Foetal Bovine Serum, 1 mM Sodium Pyruvate, 11 mM Hepes and 1× Penicillin/Streptomycin. CHO hLPA2 cells are seeded into black walled clear-bottom 384-well plates (#781091, Greiner Bio-One GmbH) at a density of 7,500 cells per well in 50 μl culture media and grown overnight in a 37° C. humidified CO2-incubator. Serial dilutions (1:3 or 1:4, 11 points CRC) of compounds are performed in 100% DMSO at 200× the final concentration. The compounds are diluted 1:50 prior to the experiment with Assay Buffer (20 mM HEPES, 145 mM NaCl, 5 mM KCl, 5.5 mM glucose, 1 mM MgCl2 and 2 mM CaCl2), pH 7.4 containing 0.01% Pluronic F-127) to obtain a solution corresponding to […] the final concentration in the assay (4×, 2% DMSO). The final concentration of DMSO in the assay will be 0.5% in each well. Medium is removed by aspiration and cells are then incubated with 30 μl of a loading solution containing 5 μM of the cytoplasmic Ca2+ indicator Cal-520 AM in Assay Buffer containing 2.5 mM probenecid for 30 min at 37° C. incubator (cell loading). The loaded cell plates are transferred into the FLIPR instrument and calcium responses are monitored during the on-line addition protocols. For testing of compounds, after the cell loading, 10 μl/well of 4× antagonists' solution was added onto the cells. After 30 min pre-incubation (at 37° C.), 10 μl/well of 5× concentrated LPA EC80 was added and Ca2+ mobilization responses was followed during the on-line addition protocol. Intracellular peak fluorescence values subtracted by baseline fluorescence are exported and analysed to determine IC50 values, respectively. The calcium response is expressed as percentage of the maximal inhibition of the EC80 agonist response.
The raw data obtained in unstimulated controls (DMSO, no LPA) are set as “100% inhibition”, while the raw data obtained in negative controls, i.e. in the absence of compounds and stimulating with LPA EC80, are set as “0% inhibition”.
The raw data (peak height expressed as relative fluorescence units) are normalized and transformed into “percent of inhibition”. Curve fitting and pIC50 (−Log IC50) estimations are carried out using a four-parameter logistic model using XLfit Software.

T1 sequence (Q9HBW0 whole entry): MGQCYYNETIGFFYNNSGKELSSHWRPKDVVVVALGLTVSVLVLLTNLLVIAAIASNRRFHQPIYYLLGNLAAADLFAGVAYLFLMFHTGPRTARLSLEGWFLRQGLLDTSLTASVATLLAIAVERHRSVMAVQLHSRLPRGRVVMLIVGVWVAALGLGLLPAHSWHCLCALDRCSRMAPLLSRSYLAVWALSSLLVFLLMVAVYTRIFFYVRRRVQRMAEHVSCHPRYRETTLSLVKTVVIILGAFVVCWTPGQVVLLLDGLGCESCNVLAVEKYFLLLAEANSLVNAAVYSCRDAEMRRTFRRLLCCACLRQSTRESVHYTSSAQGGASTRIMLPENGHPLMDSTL

pIC50	SMILES
> 8.00	COC(=O)Nc1nc(C)c(S(=O)(=O)N2CCN(C[C@H](C)NC(=O)c3cccc(-c4sc(C)nc4C)c3)CC2)s1 [Example 1, methyl N-[5-({4-[(2S)-2-{[3-(2,4-dimethyl-1,3-thiazol-5-yl)phenyl]formamido}propyl]piperazin-1-yl}sulfonyl)-4-methyl-1,3-thiazol-2-yl]carbamate]
7.00 to 8.00	Cc1cc(-c2ccc(S(=O)(=O)N3CCN(C[C@H](C)NC(=O)c4cc(-c5sc(C)nc5C)ccc4F)CC3)s2)on1 [Example 2, 5-(2,4-dimethyl-1,3-thiazol-5-yl)-2-fluoro-N-[(2 S)-1-(4-{[5-(3-methyl-1,2-oxazol-5-yl)thiophen-2-yl]sulfonyl}piperazin-1-yl)propan-2-yl]benzamide]
7.00 to 8.00	Cc1cc(-c2ccc(S(=O)(=O)N3CCN(C[C@H](C)NC(=O)c4cc(-c5sc(C)nc5C)ccn4)CC3)s2)on1 [Example 3, 4-(2,4-dimethyl-1,3-thiazol-5-yl)-N-[(2S)-1-(4-{[5-(3-methyl-1,2-oxazol-5-yl)thiophen-2-yl]sulfonyl}piperazin-1-yl)propan-2-yl]pyridine-2-carboxamide]
> 6.00	COC(=O)Nc1nc(C)c(S(=O)(=O)N2CCN(C[C@H](C)NC(=O)c3cc(-c4sc(C)nc4C)ccn3)CC2)s1 [Example 4, methyl N-[5-({4-[(2S)-2-{[4-(2,4-dimethyl-1,3-thiazol-5-yl)pyridin-2-yl]formamido}propyl]piperazin-1-yl}sulfonyl)-4-methyl-1,3-thiazol-2-yl]carbamate]
7.00 to 8.00	COC(=O)Nc1nc(C)c(S(=O)(=O)N2CCN(C[C@H](C)NC(=O)c3cc(-c4sc(C)nc4C)ccc3F)CC2)s1 [Example 5, methyl N-[5-({4-[(2S)-2-{[5-(2,4-dimethyl-1,3-thiazol-5-yl)-2-fluorophenyl]formamido}propyl]piperazin-1-yl}sulfonyl)-4-methyl-1,3-thiazol-2-yl]carbamate]
> 6.00	COC(=O)Nc1nc(C)c(S(=O)(=O)N2CCN(C[C@H](C)NC(=O)c3cccc(-c4sc(C)nc4C)n3)CC2)s1 [Example 6, methyl N-[5-({4-[(2S)-2-{[6-(2,4-dimethyl-1,3-thiazol-5-yl)pyridin-2-yl]formamido}propyl]piperazin-1-yl}sulfonyl)-4-methyl-1,3-thiazol-2-yl]carbamate]
7.00 to 8.00	COC(=O)Nc1nc(C)c(S(=O)(=O)N2CCN(C[C@H](C)NC(=O)c3cccc(-c4cccc(CN(C)C)c4)c3)CC2)s1 [Example 7, methyl N-[5-({4-[(2S)-2-({3′-[(dimethylamino)methyl]-[1,1′-biphenyl]-3-yl}formamido)propyl]piperazin-1-yl}sulfonyl)-4-methyl-1,3-thiazol-2-yl]carbamate]
7.00 to 8.00	COC(=O)Nc1nc(C)c(S(=O)(=O)N2CCN(C[C@H](C)NC(=O)c3cccc(-c4ccc(C)nc4)c3)CC2)s1 [Example 8, methyl N-[4-methyl-5-({4-[(2S)-2-{[3-(6-methylpyridin-3-yl)phenyl] formamido}propyl]piperazin-1-yl}sulfonyl)-1,3-thiazol-2-yl]carbamate]
> 6.00	COC(=O)Nc1nc(C)c(S(=O)(=O)N2CCN(C[C@H](C)NC(=O)c3cccc(-c4cn(C)nc4C(F)(F)F)c3)CC2)s1 [Example 9, methyl N-[4-methyl-5-({4-[(2S)-2-({3-[1-methyl-3-(trifluoromethyl)-1H-pyrazol-4-yl]phenyl}formamido)propyl]piperazin-1-yl}sulfonyl)-1,3-thiazol-2-yl]carbamate]
> 6.00	COC(=O)Nc1nc(C)c(S(=O)(=O)N2CCN(C[C@H](C)NC(=O)c3cc(-c4cccc(CN(C)C)c4)cs3)CC2)s1 [Example 10, methyl N-[5-({4-[(2S)-2-[(4-{3-[(dimethylamino)methyl]phenyl}thiophen-2-yl)formamido]propyl]piperazin-1-yl}sulfonyl)-4-methyl-1,3-thiazol-2-yl]carbamate]
> 6.00	Cc1nc(C)c(-c2cccc(C(=O)N[C@@H](C)CN3CCN(S(=O)(=O)c4ccc5[nH]c(=O)sc5c4)CC3)c2)s1 [Example 11, 3-(2,4-dimethyl-1,3-thiazol-5-yl)-N-[(2S)-1-{4-[(2-oxo-2,3-dihydro-1,3-benzothiazol 6-yl)sulfonyl]piperazin-1-yl}propan-2-yl]benzamide]

Same assay, conditions: compound called inactive on receptor LPA2, read-out: IC50 on LPA2 receptor

pIC50	SMILES
< 5.52	COC(=O)Nc1nc(C)c(S(=O)(=O)N2CCN(C[C@H](C)Nc3ncnc4ncccc34)CC2)s1 [Comparative Example A, Methyl (S)-(4-methyl-5-((4-(2-(pyrido[2,3-d]pyrimidin-4 ylamino)propyl)piperazin-1-yl)sulfonyl)thiazol-2-yl)carbamate, reference compound]
